{"source": "paper PMC7062083", "about": "“Metabolite identification, tissue distribution, excretion and preclinical pharmacokinetic studies of ET-26-HCl, a new analogue of etomidate” (Royal Society Open Science, 2020)", "key": {"[1]": {"test": "Plasma protein binding, equilibrium dialysis, mouse plasma", "format": "in vitro ADME", "procedure": "(§1) The PPB of ET-26-HCl in mouse, rat, beagle dog, monkey and human plasma was determined according to the equilibrium dialysis method. In brief, 1 ml of control plasma samples in dialysis bag was incubated in 10 ml of PBS containing ET-26-HCl at a final concentration of 2.21 × 10^2, 1.77 × 10^3 and 3.54 × 10^3 […] at 4°C with an equilibrium time of 9 h to reach the mass balance binding condition. A 100 µl aliquots of the PBS buffer and the plasma in the dialysis bag were transferred to 2 ml EP tubes and diluted to 995 µl with PBS and analysed on the LC–MS/MS system. The PPB (fppb) was calculated as follows: fppb=Din−Dout/Din×100% , where Din is the plasma drug concentration in the dialysis bag and Dout is the dialysate drug concentration."}, "[2]": {"test": "Dose tolerance pre-experiment in rats", "format": "in vivo", "procedure": "For the PK study of beagle dogs and excretion test of rats, how do you identify those doses? As you described, beagle dogs in the 6 groups received three doses of ET-26- HCl: 1.045 mg/kg, 2.090 mg/kg, and 4.180 mg/kg as low (L), medium (M), and high (H) dose; however, the rats received a single 4.2 mg/kg dose of ET-26-HCl. Please provide the citations or calculation of […]\nThank the reviewer for this comment. According to the “Guidelines for non-clinical pharmacokinetic studies of drugs” of China Food and Drug Administration, the in vivo pharmacokinetic studies of animals should be performed with at least three dose groups, which the high dose is preferably close to the maximum tolerated dose, and the small dose is selected based on the limits of the effective dose of the animals. […]\nkg and 1.045 mg/ kg for rat and dog, respectively, according to the results of the drug effect in the early stage of the cooperation laboratory. In our pre-experiment, individual rats appeared myoclonus after the 4-fold ED50 dose administration. When given the higher dose, some rats […]\nThus, the ED50, 2-fold ED50, and 4-fold ED50 dose were used as the low, middle and high dose group for the pharmacokinetic study in our previous research. Similar dosage design was used in our present work. The middle dose (4.2 mg/kg dose of ET-26-HCl) was utilized for the excretion test in rats. […]"}, "[3]": {"test": "Metabolic stability in human liver microsomes", "format": "in vitro ADME", "procedure": "(§2) Samples were analysed by LC–MS/MS as mentioned above.2.1 CLint, in vitro=0.693/t1/2/Cprotein, 2.2 CLint, in vivo=CLint, in vitro×Houston×LW/1000 2.3 andCLhep in vivo=HBF × fu ×CLint, in vivo/HBF + fu ×CLint, in vivo. Where Cprotein is microsomal protein concentration (mg ml^−1); Houston is Houston factor (45 mg of microsomal protein g^−1 liver); LW is liver weight (g) (per species); HBF is hepatic blood flow (ml min^−1) (per species); fu (two places) and later is unbound fraction (fu = 1 − %protein binding)."}, "[4]": {"conditions": "rats, i.v., cited from earlier work"}, "[5]": {"test": "Metabolic stability in mouse liver microsomes", "format": "in vitro ADME", "procedure": "as §2"}, "[6]": {"test": "Plasma protein binding, equilibrium dialysis, human plasma", "format": "in vitro ADME", "conditions": "human, plasma", "procedure": "as §1"}, "[7]": {"test_system": "human plasma", "test": "Plasma protein binding, equilibrium dialysis, human plasma", "format": "in vitro ADME", "conditions": "overall over the three concentrations", "procedure": "as §1"}, "[8]": {"set-up": "method as in earlier work", "conditions": "dog; ref results of the drug effect in the early stage of the cooperation laboratory; cited from earlier work"}, "[9]": {"test": "Tissue distribution in Sprague Dawley rats", "format": "in vivo", "procedure": "Concentrations of ET-26-HCl and ET-26-acid in biological samples were determined by liquid chromatography–tandem mass spectrometry (LC–MS/MS) after deproteinization with methanol. The bioanalytical method for simultaneous quantification of ET-26-HCl and ET-26-acid in the different matrix was fully validated according to FDA guidelines (electronic supplementary material, figure S1 and tables S1 and S2) in our previous study. Briefly, a 100 µl sample (plasma, tissue homogenate, bile, urine and faeces suspension) were spiked with 20 µl of IS solution and vortexed for 30 s. The mixture was then processed for protein precipitation with 300 µl methanol, followed by centrifugation at 12 000 r.p.m. for 5 min. Supernatant was collected and analysed by LC–MS/MS system.\nSprague Dawley (SD) rats (200–240 g) were provided by the Animal Facility at Sichuan University (Chengdu, China). All rats received a single 4.2 mg kg^−1 dose of ET-26-HCl intravenously. Rats were sacrificed and tissues, including heart, spleen, lung, intestine, colon, kidney, brain, fat, stomach, liver, muscle, testis and ovary were collected at 0, 1, 3, 6 and 10 h post-dosing (six rats/time-point). Tissue samples were rinsed thrice in ice cold saline, and blotted dry with filter papers. Weighed amount of tissues were homogenized in normal saline (thrice the tissue weight, w/v) and homogenates were stored at −80°C until analysis."}, "[10]": {"conditions": "measured concentration 654 ng ml^−1"}, "[11]": {"conditions": "measured concentration 2.62 × 10^3 ng ml^−1, read-out: protein binding (converted)"}, "[12]": {"conditions": "measured concentration 5.23 × 10^3 ng ml^−1, read-out: protein binding (converted)"}, "[13]": {"conditions": "overall over the three concentrations, read-out: plasma protein binding rate (converted)"}}, "note": "Like-named read-outs stand apart in the source and are kept apart here.", "data": [{"compound": "COCCOC(=O)c1cncn1[C@H](C)c1ccccc1.Cl", "note": "[ET-26-HCl, (R)-2-methoxyethyl1-(1-phenylethyl)-1H-imidazole-5-carboxylate hydrochloride]", "values": [{"measurement": "fraction unbound at 9 h, 654 ng ml^−1", "setting": "[1]; [10]", "result": 0.0453}, {"measurement": "fraction unbound at 9 h", "setting": "[1]; [11]", "result": 0.0539}, {"measurement": "fraction unbound at 9 h", "setting": "[1]; [12]", "result": 0.0702}, {"measurement": "fraction unbound at 9 h", "setting": "[1]; [13]", "result": "0.0565 ± 0.000689"}, {"measurement": "adverse signs observed", "setting": "[2]; individual rats, after the 4-fold ED50 dose", "result": "myoclonus"}, {"measurement": "adverse signs observed", "setting": "[2]; some rats, dose higher than 4-fold ED50", "result": "convulsions and even died"}, {"measurement": "CLint, in vitro", "setting": "[3]; human liver microsomes", "result": 50.0, "unit": "ml min g^−1 protein"}, {"measurement": "metabolic stability (in words)", "setting": "[3]; human liver microsomes", "result": "relatively stable"}, {"measurement": "CLint, in vitro", "setting": "[3]; human liver microsomes, Cprotein 0.33 mg ml^−1", "result": "50.0 ± 1.9", "unit": "ml min^−1 g^−1 protein"}, {"measurement": "extrapolated CLhep in vivo", "setting": "[3]; human, from liver microsomes", "result": "1077 ± 11.8", "unit": "mL/min"}, {"measurement": "extrapolated CLint, in vivo", "setting": "[3]; human, from liver microsomes", "result": "3823 ± 146.4", "unit": "mL/min"}, {"measurement": "half-life", "setting": "[3]; pH 7.4, human liver microsomes, Cprotein 0.33 mg ml^−1", "result": "42 ± 1.7", "unit": "min"}, {"measurement": "AUC0-t", "setting": "[4]; 2.1 mg/kg", "result": "28.47 ± 3.41", "unit": "mg·min/L"}, {"measurement": "CL", "setting": "[4]; 2.1 mg/kg", "result": "58 ± 11", "unit": "mL/min/kg"}, {"measurement": "Cmax", "setting": "[4]; 2.1 mg/kg", "result": "1820 ± 200", "unit": "ng/mL"}, {"measurement": "Vd", "setting": "[4]; 2.1 mg/kg", "result": "5.37 ± 0.72", "unit": "L/kg"}, {"measurement": "t1/2", "setting": "[4]; 2.1 mg/kg", "result": "65.4 ± 12.6", "unit": "min"}, {"measurement": "λ", "setting": "[4]; 2.1 mg/kg", "result": "0.66 ± 0.24", "unit": "h⁻¹"}, {"measurement": "AUC0-t", "setting": "[4]; 4.2 mg/kg", "result": "41.70 ± 3.61", "unit": "mg·min/L"}, {"measurement": "CL", "setting": "[4]; 4.2 mg/kg", "result": "92 ± 8", "unit": "mL/min/kg"}, {"measurement": "Cmax", "setting": "[4]; 4.2 mg/kg", "result": "3310 ± 210", "unit": "ng/mL"}, {"measurement": "Vd", "setting": "[4]; 4.2 mg/kg", "result": "5.24 ± 1.33", "unit": "L/kg"}, {"measurement": "t1/2", "setting": "[4]; 4.2 mg/kg", "result": "39.6 ± 10.2", "unit": "min"}, {"measurement": "λ", "setting": "[4]; 4.2 mg/kg", "result": "1.20 ± 0.36", "unit": "h⁻¹"}, {"measurement": "AUC0-t", "setting": "[4]; 8.4 mg/kg", "result": "110.92 ± 9.04", "unit": "mg·min/L"}, {"measurement": "CL", "setting": "[4]; 8.4 mg/kg", "result": "64 ± 5", "unit": "mL/min/kg"}, {"measurement": "Cmax", "setting": "[4]; 8.4 mg/kg", "result": "7010 ± 360", "unit": "ng/mL"}, {"measurement": "Vd", "setting": "[4]; 8.4 mg/kg", "result": "4.67 ± 0.99", "unit": "L/kg"}, {"measurement": "t1/2", "setting": "[4]; 8.4 mg/kg", "result": "51 ± 8.4", "unit": "min"}, {"measurement": "λ", "setting": "[4]; 8.4 mg/kg", "result": "0.78 ± 0.12", "unit": "h⁻¹"}, {"measurement": "time until cleared after intravenous administration", "setting": "[4]", "result": "≤ 4", "unit": "h"}, {"measurement": "CLint, in vitro", "setting": "[5]; mouse liver microsomes", "result": 629, "unit": "ml min g^−1 protein"}, {"measurement": "metabolic stability (in words)", "setting": "[5]; mouse liver microsomes", "result": "not metabolically stable"}, {"measurement": "CLint, in vitro", "setting": "[5]; mouse liver microsomes, Cprotein 0.33 mg ml^−1", "result": "629 ± 25.7", "unit": "ml min^−1 g^−1 protein"}, {"measurement": "extrapolated CLhep in vivo", "setting": "[5]; mouse, from liver microsomes", "result": "2.8 ± 0.0", "unit": "mL/min"}, {"measurement": "extrapolated CLint, in vivo", "setting": "[5]; mouse, from liver microsomes", "result": "42.4 ± 1.7", "unit": "mL/min"}, {"measurement": "half-life", "setting": "[5]; mouse, liver microsomes, pH 7.4, mouse liver microsomes, Cprotein 0.33 mg ml^−1", "result": "< 5", "unit": "min"}, {"measurement": "fraction unbound at 9 h, 654 ng ml^−1", "setting": "[6]; [10]", "result": 0.372}, {"measurement": "fraction unbound at 9 h", "setting": "[6]; [11]", "result": 0.318}, {"measurement": "fraction unbound at 9 h", "setting": "[6]; [12]", "result": 0.261}, {"measurement": "fraction unbound at 9 h", "setting": "[6]; [13]", "result": 0.317}, {"measurement": "plasma protein binding rate", "setting": "[7]", "result": 68, "unit": "%"}, {"measurement": "ED50", "setting": "[8]", "result": 1.045, "unit": "mg/kg"}, {"measurement": "time for complete excretion from kidney", "setting": "[9]; i.v. 4.2 mg kg^−1", "result": "≤ 24", "unit": "h"}, {"measurement": "time for elimination from the brain", "setting": "[9]; i.v. 4.2 mg kg^−1", "result": "≤ 3", "unit": "h"}, {"measurement": "concentration in the brain", "setting": "[9]; i.v. 4.2 mg kg^−1, at the onset", "result": 2570, "unit": "ng/mL"}, {"measurement": "time for clearance from tissues", "setting": "[9]; i.v. 4.2 mg kg^−1 ET-26-HCl", "result": "around 3 h"}, {"measurement": "tissues with the highest concentration", "setting": "[9]; i.v. 4.2 mg kg^−1 ET-26-HCl", "result": "Adipose tissue and liver"}]}]}
